Experimental findings from patent US20230250088A1, “COMPOUNDS AND COMPOSITIONS FOR TREATING CONDITIONS ASSOCIATED WITH STING ACTIVITY” (IFM Due, Inc., priority 2020, published 2023) are described below.

Several values for one entry are separate records, joined by “and”; a condition that tells them apart may be missing. Equal values may be shown once.

T1 sequence (Q86WV6 whole entry R71H/G230A/H232R/R293Q): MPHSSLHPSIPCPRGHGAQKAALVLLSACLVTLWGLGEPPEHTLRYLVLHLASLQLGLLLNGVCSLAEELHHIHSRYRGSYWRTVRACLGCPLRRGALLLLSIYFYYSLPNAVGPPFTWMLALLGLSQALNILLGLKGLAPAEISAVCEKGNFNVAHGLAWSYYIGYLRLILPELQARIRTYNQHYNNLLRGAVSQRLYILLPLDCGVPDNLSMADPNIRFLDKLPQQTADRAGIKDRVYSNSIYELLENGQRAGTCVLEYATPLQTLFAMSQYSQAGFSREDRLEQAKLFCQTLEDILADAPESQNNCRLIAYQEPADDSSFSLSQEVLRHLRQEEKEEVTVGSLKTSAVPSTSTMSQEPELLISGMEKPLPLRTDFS

One experiment concerns the target T1, hSTING (Homo sapiens, UniProt Q86WV6, G230A/H232R/R293Q/R71H).
T1 construct: host or cells: THP1-Dual KO-IFNAR2 cells
The experiment is described as follows: STING reporter assay (luciferase) in THP1-Dual KO-IFNAR2 cells activated with 2′3′cGAMP. The format is cell-based. The following applies: THP1-Dual KO-IFNAR2 cells; 2′3′cGAMP 15 μM final, Lipofectamine 2000; 24 h; luciferase reporter activity; read-out: hSTING EC50. The protocol:
STING pathway activation by the compounds described herein was measured using THP1-Dual™ cells (KO-IFNAR2).
THP1-Dual™ KO-IFNAR2 Cells (obtained from invivogen) were maintained in RPMI, 10% FCS, 5 ml P/S, 2 mM L-glut, 10 mM Hepes, and 1 mM sodium pyruvate. Compounds were spotted in empty 384 well tissue culture plates (Greiner 781182) by Echo for a final concentration of 0.0017-100 μM. Cells were plated into the TC plates at 40 μL per well, 2×10E6 cells/mL. For activation with STING ligand, 2′3′cGAMP (MW 718.38, obtained from Invivogen), was prepared in Optimem media.
The following solutions were prepared for each 1×384 plate: • Solution A: 2 mL Optimem with one of the following stimuli: • 60 μL of 10 mM 2′3′cGAMP→150 μM stock • Solution B: 2 mL Optimem with 60 μL Lipofectamine 2000→Incubate 5 min at RT
2 mL of solution A and 2 ml Solution B was mixed and incubated for 20 min at room temperature (RT). 20 μL of transfection solution (A+B) was added on top of the plated cells, with a final 2′3′cGAMP concentration of 15 μM. The plates were then centrifuged immediately at 340 g for 1 minute, after which they were incubated at 37° C., 5% CO2, >98% humidity for 24h. Luciferase reporter activity was then measured. EC50 values were calculated by using standard methods known in the art.
Luciferase reporter assay: 10 μL of supernatant from the assay was transferred to white 384-plate with flat bottom and squared wells. One pouch of QUANTI-Luc™ Plus was dissolved in 25 mL of water. 100 μL of QLC Stabilizer per 25 mL of QUANTI-Luc™ Plus solution was added. 50 μL of QUANTI-Luc™ Plus/QLC solution per well was then added. Luminescence was measured on a Platereader (e.g., Spectramax I3X (Molecular Devices GF3637001)).
Luciferase reporter activity was then measured. EC50 values were calculated by using standard methods known in the art.
For the compound `O=C(Nc1c[nH]c2cc(F)c(F)cc12)c1cc2ccc(Cl)cn2n1` [Compound 116, 6-chloro-N-(5,6-difluoro-1H-indol-3-yl)pyrazolo[1,5-a]pyridine-2-carboxamide], the 50% effective concentration (EC50) is 200 to 1000 nM.

For `Cn1nc(C(=O)Nc2c[nH]c3cc(F)c(F)cc23)c2ccc(C(F)(F)F)cc21` [Compound 158], the EC50 was in the range of 200 to 1000 nM.

As for `CC(C)(C)OC(=O)N1CCCn2nc(C(=O)Nc3c[nH]c4cc(F)c(F)cc34)cc2C1` [Compound 114, tert-butyl 2-[(5,6-difluoro-1H-indol-3-yl)carbamoyl]-4H,5H,6H,7H,8H-pyrazolo[1,5-a][1,4]diazepine-5-carboxylate], the EC50 was in the range of 5000 to 100000 nM.

For `CC1(C)CCc2c(C(=O)Nc3c[nH]c4cc(F)c(F)cc34)n[nH]c2C1` [Compound 156], the EC50 was 1000 to 5000 nM.

Consider `O=C(Nc1c[nH]c2ccc(Cl)cc12)c1n[nH]c2cc(N3CCN(CC(F)(F)F)CC3)ccc12` [Compound 144], for which the EC50 is 40 to 200 nM.

For `O=C(Nc1c[nH]c2cc(F)c(F)cc12)c1n[nH]c2cc(NCC(F)(F)F)ccc12` [Compound 126], the EC50 is 40 to 200 nM and 200 to 1000 nM.

`O=C(Nc1c[nH]c2cc(F)c(F)cc12)c1cccc2nn(CCC(F)(F)F)cc12` [Compound 137]: the 50% effective concentration (EC50) was in the range of 200 to 1000 nM.

For `O=C(Nc1c[nH]c2cc(F)c(F)cc12)c1cnc2cc(OCC(F)(F)F)ccn12` [Compound 150], the EC50 was 40 to 200 nM.

Regarding `O=C(Nc1c[nH]c2cc(F)c(F)cc12)c1cccc2nn(Cc3ccc(C(F)(F)F)cc3)cc12` [Compound 121], the EC50 is 200 to 1000 nM.

On to `O=C(Nc1c[nH]c2ccc(Cl)cc12)c1n[nH]c2cc(OCC(F)(F)F)ccc12` [Compound 149], for which the EC50 lay in the range of 40 to 200 nM.

In the case of `O=C(Nc1c[nH]c2cc(F)c(F)cc12)c1n[nH]c2nc(OCC(F)(F)F)ccc12` [Compound 129], the concentration giving a half-maximal response (EC50) is 200 to 1000 nM.

Consider `O=C(Nc1c[nH]c2cc(F)c(F)cc12)c1n[nH]c2c1CN(CC(F)(F)F)C2` [Compound 151], for which the EC50 was 5000 to 100000 nM.

For the compound `CC(C)(C)OC(=O)N1Cc2n[nH]c(C(=O)Nc3c[nH]c4cc(F)c(F)cc34)c2C1` [Compound 110, tert-butyl 3-((5,6-difluoro-1H-indol-3-yl)carbamoyl)-4,6-dihydropyrrolo[3,4-c]pyrazole-5(1H)-carboxylate], the EC50 was 1000 to 5000 nM.

Consider `O=C(Nc1c[nH]c2cc(F)c(F)cc12)c1n[nH]c2cc(OC(F)(F)F)ccc12` [Compound 118], for which the concentration giving a half-maximal response (EC50) lay in the range of 200 to 1000 nM.

For the compound `O=C(Nc1c[nH]c2cc(F)c(F)cc12)c1cn2cc(C(F)(F)F)ccc2n1` [Compound 113, N-(5,6-difluoro-1H-indol-3-yl)-6-(trifluoromethyl)imidazo[1,2-a]pyridine-2-carboxamide], the EC50 is 1000 to 5000 nM.

Take `O=C(Nc1c[nH]c2cc(F)c(F)cc12)c1n[nH]c2nc(N3CCC(F)(F)CC3)ccc12` [Compound 154]: the EC50 was 200 to 1000 nM.

Turning to `Cc1nc(C(=O)Nc2c[nH]c3cc(F)c(F)cc23)c2ccc(C(F)(F)F)cn12` [Compound 134], the half-maximal effective concentration (EC50) lay in the range of 5000 to 100000 nM.

As for `O=C(Nc1c[nH]c2cc(F)c(F)cc12)c1cn2c(n1)CCC(C(F)(F)F)C2` (stereo not shown) [Compound 120, N-(5,6-difluoro-1H-indol-3-yl)-6-(trifluoromethyl)-5,6,7,8-tetrahydroimidazo[1,2-a]pyridine-2-carboxamide], the concentration giving a half-maximal response (EC50) lay in the range of 5000 to 100000 nM.

Consider `O=C(Nc1c[nH]c2cc(F)c(F)cc12)c1cccc2c1cnn2Cc1ccc(C(F)(F)F)cc1` [Compound 122], for which the concentration giving a half-maximal response (EC50) lay within 200 to 1000 nM.

On to `CC(C)(C)OC(=O)N1CCc2c(C(=O)Nc3c[nH]c4cc(F)c(F)cc34)csc2C1` [Compound 109, tert-butyl 3-((5,6-difluoro-1H-indol-3-yl)carbamoyl)-4.5-dihydrothieno[2,3-c]pyridine-6(7H)-carboxylate], for which the concentration for a half-maximal effect (EC50) was in the range of 200 to 1000 nM.

On to `O=C(Nc1c[nH]c2cc(F)c(F)cc12)C1Cc2[nH]nc(C(F)(F)F)c2C1` (stereo not shown) [Compound 115, N-(5,6-difluoro-1H-indol-3-yl)-3-(trifluoromethyl)-1H,4H,5H,6H-cyclopenta[c]pyrazole-5-carboxamide], for which the EC50 fell in the range of 5000 to 100000 nM.

As to `O=C(Nc1c[nH]c2cc(F)c(F)cc12)c1cccc2c1cnn2CCC(F)(F)F` [Compound 138], the concentration for a half-maximal effect (EC50) was in the range of 1000 to 5000 nM.

For the compound `O=C(Nc1c[nH]c2ccccc12)c1n[nH]c2cc(OCC(F)(F)F)ccc12` [Compound 148, N-(1H-indol-3-yl)-6-(2,2,2-trifluoroethoxy)-1H-indazole-3-carboxamide], the EC50 lay within 40 to 200 nM.

On to `Cn1nc2cc(C(F)(F)F)ccc2c1C(=O)Nc1c[nH]c2cc(F)c(F)cc12` [Compound 157], for which the EC50 was in the range of 5000 to 100000 nM.

For `O=C(Nc1c[nH]c2cc(F)c(F)cc12)c1n[nH]c2cc(OCC(F)(F)F)ccc12` [Compound 125], the EC50 lay within 40 to 200 nM.

`O=C(Nc1c[nH]c2cc(F)c(F)cc12)c1ccc2c(c1)OCCCO2` [Compound 124, N-(5,6-difluoro-1H-indol-3-yl)-3,4-dihydro-2H-benzo[b][1,4]dioxepine-7-carboxamide]: the EC50 is 200 to 1000 nM.

On to `O=C(Nc1c[nH]c2cc(F)c(F)cc12)c1cnc2cc(C(F)(F)F)ccn12` [Compound 105], for which the 50% effective concentration (EC50) lay within 1000 to 5000 nM.

For `O=C(Nc1c[nH]c2ccc(Cl)cc12)c1n[nH]c2cc(N3CCC(F)(F)CC3)ccc12` [Compound 146], the EC50 is 40 to 200 nM.

`O=C(Nc1c[nH]c2ccc(Cl)cc12)c1n[nH]c2c1CN(Cc1ccc(C(F)(F)F)cc1)C2` [Compound 142, N-(5-chloro-1H-indol-3-yl)-5-(4-(trifluoromethyl)benzyl)-1,4,5,6-tetrahydropyrrolo[3,4-c]pyrazole-3-carboxamide]: the concentration giving a half-maximal response (EC50) lay within 200 to 1000 nM.

For the compound `O=C(Nc1c[nH]c2cc(F)c(F)cc12)c1c2ccccc2nn1Cc1ccc(C(F)(F)F)cc1` [Compound 101], the half-maximal effective concentration (EC50) fell in the range of 1000 to 5000 nM.

Regarding `CC(C)(C)OC(=O)N1CCn2nc(C(=O)Nc3c[nH]c4cc(F)c(F)cc34)cc2C1` [Compound 111, tert-butyl 2-[(5,6-difluoro-1H-indol-3-yl)carbamoyl]-4H,5H,6H,7H-pyrazolo[1,5-a]pyrazine-5-carboxylate], the EC50 fell in the range of 1000 to 5000 nM.

On to `Cc1ccc2c(C(=O)Nc3c[nH]c4cc(F)c(F)cc34)cnn2c1` [Compound 104], for which the EC50 lay within 200 to 1000 nM.

Consider `O=C(Nc1c[nH]c2cc(F)c(F)cc12)c1n[nH]c2nc(N3CCC(F)(F)CC3)c(Cl)cc12` [Compound 152], for which the EC50 was in the range of 200 to 1000 nM.

Consider `O=C(Nc1c[nH]c2cc(F)c(F)cc12)c1cc2cccnc2s1` [Compound 112, N-(5,6-difluoro-1H-indol-3-yl)thieno[2,3-b]pyridine-2-carboxamide], for which the EC50 was 1000 to 5000 nM.

As for `O=C(Nc1c[nH]c2ccc(Cl)cc12)c1noc2cc(N3CCC(F)(F)CC3)ccc12` [Compound 147], the EC50 was 40 to 200 nM.

On to `O=C(Nc1c[nH]c2cc(F)c(F)cc12)c1n[nH]c2cc(N3CCC(F)(F)CC3)ccc12` [Compound 155], for which the EC50 was in the range of 40 to 200 nM.

On to `O=C(Nc1c[nH]c2cc(F)c(F)cc12)c1c2ccccc2nn1CCC(F)(F)F` [Compound 102], for which the EC50 was 5000 to 100000 nM.

As to `CC(C)(C)OC(=O)N1CCc2c(C(=O)Nc3c[nH]c4cc(F)c(F)cc34)ncn2CC1` [Compound 117, tert-butyl 1-[(5,6-difluoro-1H-indol-3-yl)carbamoyl]-5H,6H,7H,8H,9H-imidazo[1,5-d][1,4]diazepine-7-carboxylate], the EC50 lay in the range of 5000 to 100000 nM.

As for `O=C(Nc1c[nH]c2ccc(Cl)cc12)c1n[nH]c2cc(N3CCC(F)(F)CC3)ncc12` [Compound 143, N-(5-chloro-1H-indol-3-yl)-6-(4,4-difluoropiperidin-1-yl)-1H-pyrazolo[4,3-c]pyridine-3-carboxamide], the half-maximal effective concentration (EC50) is 5000 to 100000 nM.

On to `CCC1Cc2ccc(C(=O)Nc3c[nH]c4cc(F)c(F)cc34)cc2C1` (stereo not shown) [Compound 123], for which the EC50 lay within 200 to 1000 nM.

As for `O=C(Nc1c[nH]c2cc(F)c(F)cc12)c1n[nH]c2cc(OCC(F)(F)F)ncc12` [Compound 128], the EC50 is 200 to 1000 nM.

Still in this experiment, the particulars now being: hSTING EC50, THP1-Dual KO-IFNAR2 cells; 2′3′cGAMP 15 μM final, Lipofectamine 2000; 24 h; luciferase reporter activity.
Compound `O=C(Nc1c[nH]c2cc(F)c(F)cc12)c1nn(Cc2ccc(C(F)(F)F)cc2)c2ccccc12` [Compound 106, N-(5,6-difluoro-1H-indol-3-yl)-1-[[4-(trifluoromethyl)phenyl]methyl]indazole-3-carboxamide] gave an EC50 of 200 to 1000 nM.

In turn, `O=C(Nc1c[nH]c2cc(F)c(F)cc12)c1nn(CCC(F)(F)F)c2ccccc12` [Compound 103] gave an EC50 of 200 to 1000 nM.
